Results published in patent US20020169101A1, “Treatment of sexual dysfunction” (priority 1999, published 2002).

What was measured:
[1] = tested on: female rat sexual proceptivity (NMB-inhibited); assay: Inhibition of female rat proceptivity by i.c.v. NMB and its antagonism; assay type: in vivo; conditions: progesterone 0.5 mg s.c. 4 h; NMB 100 ng i.c.v. 10 min before test in progesterone-treated rats; Compound (1) 15 mg/kg i.p. 1 h before NMB (FIG. 5)
Protocol: Ovariectomised female rats (Sprague Dawley, obtained from Charles River, UK) were stereotaxically implanted (coordinates 0.89 mm behind Bregma, 1.3 mm lateral and 2.5 mm vertical) with stainless steel cannulae (6 mm long, O.D. 0.75 mm), held in place with dental cement. Animals were housed in groups of three and returned to a reversed lighting system of 12 h light:dark (lights off 5.00-17.00 h). Correct placement of the cannulae was assessed post-mortem. Rats were used for tests two weeks after ovariectomy (one week after cannulation). The experiments started at least 5 h into the dark period. Forty eight hours before tests, the animals were primed with 5 μg oestradiol benzoate (OB) (s.c, in corn oil) and adapted to the apparatus (in the absence of stimuli animals) for 10 min on 2 consecutive days prior testing. The 10 min test was carried out as previously described. The difference in the percentage of time spent investigating male minus female was calculated, out of the total time spent investigating stimuli.
Progesterone (Prog, 0.5 mg/0.1 ml) was dissolved in corn oil and administered subcutaneously (s.c.), 4 h before test, to induce proceptive behaviour. Compound (1) (15 mg/kg, i.p.) was dissolved in 50% 2-hydroxypropyl-β-cyclodextrin in saline and administered 1 h before the i.c.v. administration. Neuromedin B was obtained from Bachem, UK. It was dissolved in isotonic saline and administered i.c.v. over a 30 sec period, with the aid of a pump set to deliver a flow of 10 μl/min, 10 min before tests. The dosing volume was 5 μl/rat. Each rat received a total amount of 100 ng.

[2] = tested on: female rat sexual proceptivity; assay: Female rat sexual proceptivity test (time investigating male vs female stimulus); assay type: in vivo; conditions: Compound (1) 15 mg/kg i.p. 1 h before test; progesterone 0.5 mg s.c. 4 h before test (FIG. 3)
Protocol: Ovariectomised adult female Sprague Dawley rats (180-200 g, from Charles River) were housed in groups of 6 in a reversed lighting system of 12 h light:dark (lights off 7.00-19.00 h). Two weeks after ovariectomy they were used for sexual activity tests. The experiments started at least 5 h into the dark period.
Tests were carried out in a circular arena of 90 cm diameter, surrounded by a 30 cm high wall. Two small cages with wire-mesh front (15×15 cm) are fixed into the wall such that the front of the cage is <> with the wall and the 2 cages are opposite each other. They contained two stimuli animals: an intact sexually experienced male and a receptive female (ovariectomised, primed with 5 μg oestradiol benzoate dissolved in corn oil and injected subcutaneously 48 hours before the test and with 0.5 mg of progesterone four hours before the test). Sexually naive test and control animals were used. Forty eight hours before the tests, both the test and control animals were primed with 5 μg oestradiol benzoate. For animals used as positive controls, progesterone (0.5 mg/0.1 ml) was dissolved in corn oil and administered subcutaneously (s.c.), 4 h before the test. Test and control animals were introduced one at a time for 10 minute periods into the arena. During the 10 min test, the time that the test or positive control animal spent investigating each stimulus animal was noted. The arena was thoroughly cleaned between animals. The position of the male/female stimuli boxes was randomised between animals, in order to avoid place preference. The difference in the percentage of time spent investigating the male minus the female stimuli was calculated, out of the total time spent investigating stimuli animals.
Compound (1) was dissolved in 100% β-cyclodextrin and then diluted with saline to a final solution of 50% 2-hydroxypropyl-β-cyclodextrin. It was administered intraperitoneally (i.p.) at doses of 3 and 10 mg/kg, in a dosing volume of 1 ml/kg, 1 h before tests. Progesterone (0.5 mg/0.1 ml) was dissolved in corn oil and administered subcutaneously (s.c.), 4 h before test, as a positive control.
Ovariectomised adult female Sprague Dawley rats (180-200 g) were housed in groups of 5 in a reversed lighting system of 12 h light:dark (lights off 5.00-17.00 h). They were used for the experiments at least two weeks after ovariectomy. Forty eight hours before tests, the animals were primed with oestradiol benzoate (5 μg/[…] in corn oil, s.c.). On day 1, progesterone (0.5 mg/0.1 ml, in corn oil, s.c.) was administered to one of the groups 4 h before tests, as a positive control. Compound (1) (15 mg/kg, i.p.) was administered in 50% 2-hydroxypropyl-β-cyclodextrin, 1 h before tests. The test lasted 10 minutes and was carried out as described before. The difference in the percentage of time spent investigating the male minus the female stimuli was calculated, out of the total time spent investigating stimuli animals. Animals were submitted to a test on day 1 and on day 15. From day 2 to 14 the Compound (1) group received a daily injection of the compound (15 mg/kg, i.p.), while both the vehicle and the progesterone groups received an injection of vehicle. On day 15 the test took place again, as described for day 1.
Ovariectomised female rats (Sprague Dawley, obtained from Charles River, UK) were stereotaxically implanted (coordinates 0.89 mm behind Bregma, 1.3 mm lateral and 2.5 mm vertical) with stainless steel cannulae (6 mm long, O.D. 0.75 mm), held in place with dental cement. Animals were housed in groups of three and returned to a reversed lighting system of 12 h light:dark (lights off 5.00-17.00 h). Correct placement of the cannulae was assessed post-mortem. Rats were used for tests two weeks after ovariectomy (one week after cannulation). The experiments started at least 5 h into the dark period. […]

[3] = Plasma sexual hormone levels in ovariectomised female rats (radioimmunoassay); assay type: in vivo, rat; conditions: Compound (1) 3-10 mg/kg i.p. 1 h, progesterone 0.5 mg s.c. 4 h before blood collection
Protocol: Ovariectomised adult female Sprague Dawley rats (180-200 g) were housed in groups of 6 in a reversed lighting system of 12 h light:dark (lights off 7.00-19.00 h). They were used for the experiments at least two weeks after ovariectomy. Forty eight hours before tests, the animals were primed with oestradiol benzoate (5 μg/0.1 ml in corn oil, s.c.). Progesterone (0.5 mg/0.1 ml, in corn oil, s.c.) was administered 4 h before blood collection, as a positive control. Compound (1) (3-10 mg/kg, i.p.) was administered in 50% 2-hydroxypropyl-β-cyclodextrin, 1 h prior to blood collection. Blood was collected from the trunk, after decapitation. It was immediately centrifuged (3500 r.p.m., 4° C., 5 min) and the plasmas frozen until assayed for hormonal content, using commercially available radioimmunoassay kits (^125I-labelled hormones) for oestradiol, progesterone, LH, FSH and prolactin.

[4] = tested on: sexual behaviour of sexually dysfunctional male rats; assay: Sexual behaviour of fluoxetine-induced sexually dysfunctional male rats; assay type: in vivo, rat
Protocol: Sprague Dawley male rats (Charles River, UK) were kept, 4 rats per cage, in a reversed lighting regime (12:12 hours, lights off at 5.00 h), with free access to food and water. The rats were pre-selected by being presented with a receptive female at 4 days intervals, i.e. every third day (having 2 clear days between presentations) until completing 6-7 trials of baseline determination. The animals showing consistently vigorous behaviour (ejaculatory latencies <300s) were chosen for further experiments. Animals were treated for 3 consecutive days with either vehicle (water) or fluoxetine (20 mg/kg, i.p., in a 2 ml/kg dosing volume). On the fourth day, the animals treated with water received vehicle (veh+veh) and the animals treated with fluoxetine received one of the three following treatments: Compound (1) (15 mg/kg, dissolved in 50% 2-hydroxypropyl-β-cyclodextrin in saline), vehicle (cyclodextrine), or yohimbine (2 mg/kg dissolved in water). All treatments were administered i.p. in a 1 ml/kg volume, 1 h before tests.
(§1) For all the sexual behaviour tests, the males were placed in an observation arena (50-60 cm diameter), starting 5 hours into the dark cycle and observed under red illumination. Three to 4 minutes after placing the male in the arena, a receptive female (ovariectomised, bearing a 7 mm Silastic implant of oestradiol benzoate) was introduced to the arena and the following parameters noted: Mount Latency: time (in seconds) taken between introduction of female and first mount. A maximum time of 15 minutes (900 seconds) was allowed, and the test terminated if no mounts were recorded within that time (FIG. 16), Ejaculation Latency: time (in seconds) taken from first intromission to ejaculation. A maximum time of 30 minutes (1800 seconds) was given, and the test terminated if ejaculation was not achieved in that time (FIG. 17), Percentage of males achieving ejaculation within 30 minutes was calculated (FIG. 18).
A one-way ANOVA followed by Dunnett's t test was used to compare the fluoxetine+vehicle group and other groups for mount and ejaculatory latencies. Percentage of animals ejaculating was analysed using a Chi-square test followed by Fisher's test. (*: P<0.05, **: P<0.01, ***: P<0.001; n=15-19).

[5] = tested on: sexual behaviour of normal male rats; assay: Sexual behaviour of normal (sexually vigorous) male rats; assay type: in vivo, rat; conditions: Compound (1) 15 mg/kg or Fluoxetine 20 mg/kg i.p. 1 h before test
Protocol: The potentially stimulatory effect of Compound (1) on male sexual behaviour has been tested on sexually vigorous rats. Sprague Dawley male rats (Charles River, UK) were kept, 4 rats per cage, in a reversed lighting regime (12:12 hours, lights off at 5.00 h), with free access to food and water. The rats were pre-selected by being presented with a receptive female at 4 days intervals, i.e. every third day (having 2 clear days between presentations) until completing 6-7 […] of baseline determination. The animals showing consistently vigorous behaviour (ejaculatory latencies <300s) were chosen for further experiments (n—24). Animals were randomised into three groups. All animals received all three treatments following a latin-square design. Treatments were administered once a week, with a baseline test in between treatments (4 days intervals between baseline and test day). Treatments were Compound (1) (15 mg/kg, dissolved in 50% 2-hydroxypropyl-β-cyclodextrin in saline), vehicle, or Fluoxetine (20 mg/kg dissolved in 100% DMSO). All treatments were administered i.p. in a 1 ml/kg volume, 1 h before tests.
as §1, with “11), Intromission Latency: time (in seconds) taken between introduction of female and first intromission (FIG. 12), Number of Mounts: to reach ejaculation. When ejaculation was not reached, the number of mounts was not analyzed, Number of Intromissions: to reach ejaculation. When ejaculation was not reached, the number of intromissions was not analyzed (FIG. 13 is number of mounts+intromissions),” for “16),”, “14), and Refractory Period: time (in seconds) taken from ejaculation to the first mount” for “17), Percentage”, “the next series of sexual activity. In those animals reaching” for “males achieving”, “the test” for “within 30 minutes”, “terminated at the end of the refractory period, as indicated by the first mount of the next sexual cycle” for “calculated”, “15).” for “18).”
A one-way ANOVA followed by Dunnett's t test was used to compare treated vs vehicle groups each day of testing, for all the sexual behaviour parameters. (*P<0.05, **P<0.01; n=15-16).

[6] = fluoxetine 20 mg/kg i.p. for 3 consecutive days, vs vehicle+vehicle group

In the case of CC(=O)[C@H]1CC[C@H]2[C@@H]3CCC4=CC(=O)CC[C@]4(C)[C@H]3CC[C@]12C [progesterone, reference compound], the “proceptivity (percentage of time investigating male minus female stimulus)” value [1] is reported as “increased the percentage of time spent investigating the male stimulus”, the “proceptivity on day 1 vs vehicle” value [2] is reported as “stimulatory effect on proceptivity” and the “plasma levels of progesterone” value ([3]; vs vehicle (FIG. 6)) is reported as “significant increase in the progesterone plasma levels”. The “plasma levels of LH” value ([3]; vs vehicle (FIG. 9)) was “significant decrease in LH plasma levels”.

With COC(=O)[C@@H]1[C@H]2C[C@H]3c4[nH]c5ccccc5c4CCN3C[C@@H]2CC[C@@H]1O [Yohimbine, yohimbine] the “Mount Latency” value ([4]; fluoxetine-pretreated rats, Compound (1) 15 mg/kg or yohimbine 2 mg/kg i.p. 1 h before test, vs fluoxetine+vehicle (FIG. 16)) was “followed a similar trend, although this did not reach significance”, the “Ejaculation Latency” value ([4]; fluoxetine-pretreated rats, Compound (1) 15 mg/kg or yohimbine 2 mg/kg i.p. 1 h before test, vs fluoxetine+vehicle (FIG. 17)) was “followed a similar trend, although this did not reach significance” and the “percentage of animals ejaculating” value ([4]; fluoxetine-pretreated rats, Compound (1) 15 mg/kg or yohimbine 2 mg/kg i.p. 1 h before test, vs fluoxetine+vehicle (FIG. 18)) was “followed a similar trend, although this did not reach significance”.

With CNCCC(Oc1ccc(C(F)(F)F)cc1)c1ccccc1 (stereo not shown) [Fluoxetine, reference compound] the “Ejaculation Latency” value [4, 6] was “significantly increased”, the “Mount Latency” value [4, 6] was “significantly increased” and the “number of animals ejaculating” value [4, 6] was “significantly lower”. The “Mount Latency” value ([5]; vs vehicle (FIG. 11)) was “significantly increased”, the “Intromission Latency” value ([5]; vs vehicle (FIG. 12)) was “significantly increased” and the “number of mounts and intromissions required to achieve ejaculation” value ([5]; vs vehicle (FIG. 13)) was “No changes”. The “Ejaculation Latency” value ([5]; vs vehicle (FIG. 14)) was “also increased” and the “Refractory Period” value ([5]; vs vehicle (FIG. 15)) was “also increased”.

In the case of neuromedin B [NMB], the “proceptivity (percentage of time investigating male minus female stimulus)” value [1] is reported as “significantly reduced proceptivity”.
